Experimental data from publication PMC4111878, “Three New Humulane Sesquiterpenes from Cultures of the Fungus Antrodiella albocinnamomea” (Natural Products and Bioprospecting, 2014).

How the values were obtained:
[1] = biological target: T1, MEG2 (Homo sapiens, UniProt P43378); assay: Enzyme inhibition assay against protein-tyrosine phosphatase MEG2 (pNPP hydrolysis); format: biochemical; conditions: recombinant His-tagged enzyme, 10 ng per well, pNPP 2 mM, pH 6.0, room temperature, 15 min preincubation, triplicate; NA = no activity; read-out: inhibitory activity against protein-tyrosine phosphatase MEG2, IC50 (converted)
T1 construct: 6xHis (N); made in house; host or cells: E. coli
T1 sequence (P43378 1-593): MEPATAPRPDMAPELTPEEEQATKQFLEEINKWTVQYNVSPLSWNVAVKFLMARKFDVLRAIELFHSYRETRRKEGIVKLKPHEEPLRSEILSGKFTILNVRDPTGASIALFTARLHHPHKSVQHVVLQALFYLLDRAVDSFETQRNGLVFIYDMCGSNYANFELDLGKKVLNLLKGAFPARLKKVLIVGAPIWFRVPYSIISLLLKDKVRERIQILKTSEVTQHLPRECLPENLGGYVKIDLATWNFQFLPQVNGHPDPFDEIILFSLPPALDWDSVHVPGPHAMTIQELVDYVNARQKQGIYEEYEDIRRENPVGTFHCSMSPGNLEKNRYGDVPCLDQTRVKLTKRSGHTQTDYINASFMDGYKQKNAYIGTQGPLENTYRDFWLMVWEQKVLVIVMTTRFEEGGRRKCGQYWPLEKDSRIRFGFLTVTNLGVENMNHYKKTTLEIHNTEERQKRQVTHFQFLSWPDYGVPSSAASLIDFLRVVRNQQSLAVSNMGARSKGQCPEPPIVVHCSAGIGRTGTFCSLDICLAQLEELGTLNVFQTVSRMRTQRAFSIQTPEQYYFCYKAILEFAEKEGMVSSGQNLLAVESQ
Procedure: (§1) The enzymatic assay was carried out at room temperature in 96-well plates. After the assay buffer which contained 100 mM Hepes (pH 6.0), 5 mM DTT 0.015 % Brij-35 and PTPase (20 ng PTP1B, 10 ng MEG2per well) was incubated with tested compounds for 15 min, the reaction was initiated by addition of the substrate p-nitrophenol phosphate (pNPP, Sigma, P4744, St. Louis, USA) at a final concentration of 2 mM. The activity of PTPase-catalyzed hydrolysis of pNPP was determined by measuring the amount of p-nitrophenol and the absorbance at 405 nm was recorded as the amount of p-nitrophenol. The IC50 value was determined by the non-linear curve fitting of the percentage inhibition versus inhibitor concentration plot. […] Louis, USA) was used for the positive control. All the assays were carried out in triplicate and the average results were presented.

[2] = biological target: T2, PTP1Bc (Homo sapiens, UniProt P18031); assay: Enzyme inhibition assay against protein-tyrosine phosphatase PTP1Bc (pNPP hydrolysis); format: biochemical; conditions: recombinant His-tagged enzyme, 20 ng per well, pNPP 2 mM, pH 6.0, room temperature, 15 min preincubation, triplicate; NA = no activity; read-out: inhibitory activity against protein-tyrosine phosphatase PTP1Bc, IC50 (converted)
T2 sequence (P18031 1-298 limits assumed): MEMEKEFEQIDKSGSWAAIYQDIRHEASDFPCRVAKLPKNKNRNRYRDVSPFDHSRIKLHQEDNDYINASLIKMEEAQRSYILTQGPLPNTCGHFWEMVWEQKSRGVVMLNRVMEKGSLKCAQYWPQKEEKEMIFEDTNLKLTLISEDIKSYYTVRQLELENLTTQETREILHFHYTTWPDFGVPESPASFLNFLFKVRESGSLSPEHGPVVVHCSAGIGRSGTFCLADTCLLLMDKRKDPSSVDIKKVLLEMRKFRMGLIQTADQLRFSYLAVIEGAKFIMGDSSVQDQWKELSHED
Procedure: as §1

C[C@H]1[C@H](C)CC[C@]2(C(=O)O)CC[C@]3(C)C(=CC[C@@H]4[C@@]5(C)CC[C@H](O)C(C)(C)[C@@H]5CC[C@]43C)[C@H]12 [Ursolic acid, reference compound]
IC50 [1]: 1.75 µM

CC1=CC(O)C(C)(O)C(C)CCC2(C)OC2CC1 (stereo not shown) [Compound 1, 6,7-epoxy-10E-humulen-1,2-diol]
IC50 [1]: 31.5 µM | IC50 [2]: 39.3 µM

CC1(C)C=CC(O)C2(C)OC2CCC2(C)OC2C1 (stereo not drawn) [Compound 3, 6,7:10,11-diepoxy-3E-humulen-5β-ol]
IC50 [2]: 59.8 µM
